Data published in ChEMBL document CHEMBL1147922, “Tetrahydroindazole inhibitors of bacterial type II topoisomerases. Part 2: SAR development and potency against multidrug-resistant strains” (Bioorg Med Chem Lett, 2007).
Converted amounts (≈) assume the structure as drawn.

Key:
Streptococcus pneumoniae = assay: Antibacterial activity against Streptococcus pneumoniae ATCC 49619; assay type: functional
Staphylococcus aureus [1] = assay: Antibacterial activity against Staphylococcus aureus ATCC 13709; assay type: functional
Staphylococcus aureus [2] = assay: Antibacterial activity against ciprofloxacin resistant methicillin resistant Staphylococcus aureus OC4222; assay type: functional
Staphylococcus aureus [3] = assay: Antibacterial activity against ciprofloxacin resistant methicillin resistant Staphylococcus aureus OC5273; assay type: functional
Staphylococcus aureus [4] = assay: Antibacterial activity against ciprofloxacin resistant methicillin resistant Staphylococcus aureus OC4159; assay type: functional
[5] = Inhibition of bacterial DNA gyrase
Staphylococcus aureus [6] = assay: Antibacterial activity against ciprofloxacin resistant methicillin resistant Staphylococcus aureus OC3946; assay type: functional
Escherichia coli = assay: Antibacterial activity against Escherichia coli KL16; assay type: functional
Staphylococcus aureus [7] = assay: Antibacterial activity against quinolone susceptible methicillin resistant Staphylococcus aureus OC2878; assay type: functional
[8] = Inhibition of bacterial DNA topoisomerase 4

COc1ccc2nccc(-n3cc4c(n3)CCC(NC(=O)c3ccc5c(c3)NC(=O)CS5)C4)c2c1 (stereo not given)
MIC (Streptococcus pneumoniae): 2 µg/mL (≈ 4.12 µM)
MIC (Staphylococcus aureus [1]): 0.25 µg/mL (≈ 0.515 µM)
MIC (Staphylococcus aureus [2]): 0.062 µg/mL (≈ 0.128 µM)
MIC (Staphylococcus aureus [3]): 0.25 µg/mL (≈ 0.515 µM)
MIC (Staphylococcus aureus [4]): 0.031 µg/mL (≈ 0.0638 µM)
IC50 [5]: 0.12 µg/mL (≈ 0.247 µM)
MIC (Staphylococcus aureus [6]): 0.015 µg/mL (≈ 0.0309 µM)
MIC (Escherichia coli): 4 µg/mL (≈ 8.24 µM)
MIC (Staphylococcus aureus [7]): 0.125 µg/mL (≈ 0.257 µM)
IC50 [8]: 0.125 µg/mL (≈ 0.257 µM)

COc1ccc2nccc(-n3cc4c(n3)CCC(NC(=O)c3ccc5c(c3)NC(=O)CS5)C4)c2n1 (stereo not given)
MIC (Streptococcus pneumoniae): 4 µg/mL (≈ 8.22 µM)
MIC (Staphylococcus aureus [1]): 0.06 µg/mL (≈ 0.123 µM)
MIC (Staphylococcus aureus [2]): 0.5 µg/mL (≈ 1.03 µM)
MIC (Staphylococcus aureus [3]): 0.062 µg/mL (≈ 0.127 µM)
MIC (Staphylococcus aureus [4]): 0.5 µg/mL (≈ 1.03 µM)
IC50 [5]: 0.25 µg/mL (≈ 0.514 µM)
MIC (Staphylococcus aureus [6]): 0.007 µg/mL (≈ 0.0144 µM)
MIC (Escherichia coli): > 128 µg/mL
MIC (Staphylococcus aureus [7]): 0.031 µg/mL (≈ 0.0637 µM)
IC50 [8]: 0.25 µg/mL (≈ 0.514 µM)

O=C1CSc2ccc(C(=O)NC3CCc4nn(-c5cccc6cccnc56)cc4C3)cc2N1 (stereo not given)
MIC (Streptococcus pneumoniae): 4 µg/mL (≈ 8.78 µM)
MIC (Staphylococcus aureus [1]): 0.25 µg/mL (≈ 0.549 µM)
MIC (Staphylococcus aureus [2]): 4 µg/mL (≈ 8.78 µM)
MIC (Staphylococcus aureus [3]): 0.5 µg/mL (≈ 1.1 µM)
MIC (Staphylococcus aureus [4]): 4 µg/mL (≈ 8.78 µM)
IC50 [5]: 2 µg/mL (≈ 4.39 µM)
MIC (Staphylococcus aureus [6]): 0.125 µg/mL (≈ 0.274 µM)
MIC (Escherichia coli): 16 µg/mL (≈ 35.1 µM)
MIC (Staphylococcus aureus [7]): 0.25 µg/mL (≈ 0.549 µM)
IC50 [8]: 0.125 µg/mL (≈ 0.274 µM)

COc1ccc2nccc(-n3cc4c(n3)CCC(NCc3ccc5c(c3)OCCO5)C4)c2c1 (stereo not given)
MIC (Streptococcus pneumoniae): 1 µg/mL (≈ 2.26 µM)
MIC (Staphylococcus aureus [1]): 0.5 µg/mL (≈ 1.13 µM)
MIC (Staphylococcus aureus [2]): 16 µg/mL (≈ 36.2 µM)
MIC (Staphylococcus aureus [3]): 1 µg/mL (≈ 2.26 µM)
MIC (Staphylococcus aureus [4]): 16 µg/mL (≈ 36.2 µM)
IC50 [5]: 2 µg/mL (≈ 4.52 µM)
MIC (Staphylococcus aureus [6]): 0.5 µg/mL (≈ 1.13 µM)
MIC (Escherichia coli): 128 µg/mL (≈ 289 µM)
MIC (Staphylococcus aureus [7]): 0.5 µg/mL (≈ 1.13 µM)
IC50 [8]: 0.06 µg/mL (≈ 0.136 µM)
